Results: US8519002B2, “Colchicine solid complex; methods of making; and methods of use thereof” (Takeda Pharmaceuticals U.S.A., Inc., priority 2008, dated 2013)

Key:
[1] = for hygroscopicity suggested by DVS data: 5% to 95% RH; for weight gain observed on the sorption step: DVS whole sorption step
Procedure: Samples ae not dried prior to analysis. Equilibrium criteria used for analysis were less than 0.0100% weight change in 5 minutes, with a maximum equilibration time of 3 hours if the weight criterion was not met. Data are not corrected for the initial moisture content of the samples. Sodium chloride and polyvinypyrrolidine are used as calibration standards.

[2] = 40° C./75% RH; for XRPD of stressed sample (solid form after stress): 4 days, result in words
[3] = DVS desorption, result in words

| Compound | hygroscopicity suggested by DVS data ([1]; result in words) | weight loss from 75 to 5% RH ([1]; DVS desorption, 75 to 5% RH) | weight loss from 95 to 75% RH ([1]; DVS desorption, 95 to 75% RH) | hysteresis upon desorption [1, 3] | weight gain from 5 to 75% RH ([1]; DVS sorption) | weight gain from 75 to 95% RH ([1]; DVS sorption, 75 to 95% RH (above 75% RH)) | weight gain observed on the sorption step [1] | Post DVS XRPD (solid form after DVS) ([1]; XRPD of sample after DVS) | net weight gain after 4 days [2] | XRPD of stressed sample (solid form after stress) [2] | weight loss from 95 to 5% RH ([1]; DVS desorption) | behaviour of material in DVS (deliquescence) ([1]; DVS, upon desorption, result in words) | net weight loss after 4 days [2] | weight gain from 5 to 95% RH ([1]; DVS sorption, 5 to 95% RH) | weight loss upon equilibration at 5% RH ([1]; DVS sorption, equilibration at 5% RH) | net weight loss after sorption and desorption ([1]; DVS, desorption versus sorption) |
| --- | --- | --- | --- | --- | --- | --- | --- | --- | --- | --- | --- | --- | --- | --- | --- | --- |
| COc1cc2c(c(OC)c1OC)-c1ccc(OC)c(=O)cc1[C@@H](NC(C)=O)CC2.O=C(O)C[C@H](O)C(=O)O [colchicine malic acid co-crystal] | hygroscopic | 9.6% weight loss from 75 to 5% RH | 15.0% weight loss from 95 to 75% RH | no hysteresis | 6.2% weight gain from 5 to 75% RH | 15.6% weight gain from 75 to 95% RH | approximately 22% | Colchicine malic acid co-crystal | approximately 5.4% | remains unchanged | – | – | – | – | – | – |
| COc1cc2c(c(OC)c1OC)-c1ccc(OC)c(=O)cc1[C@@H](NC(C)=O)CC2.COc1cc2c(c(OC)c1OC)-c1ccc(OC)c(=O)cc1[C@@H](NC(C)=O)CC2.O=C(O)C(=O)O [colchicine oxalic acid co-crystal] | hygroscopic | – | – | Significant hysteresis | 0.5% weight gain from 5 to 75% RH | – | – | – | – | colchicine oxalic acid co-crystal, but minor disorder and shifting of the peaks is observed | 15.2% weight loss from 95 to 5% RH | deliquesces | approximately 6.7% | – | – | – |
| COc1cc2c(c(OC)c1OC)-c1ccc(OC)c(=O)cc1[C@@H](NC(C)=O)CC2.Cc1ccc(S(=O)(=O)O)cc1 | not significantly hygroscopic | – | – | – | – | – | ~0.4% | – | approximately 1.0% | unchanged | 0.5% weight loss from 95 to 5% RH | – | – | 0.4% weight gain from 5 to 95% RH | 0.01% weight loss upon equilibration at 5% RH | ~0.01% |
